Test results from patent publication US8933089B2, “HIV inhibiting 5-amido substituted pyrimidines” (Janssen R & D Ireland, priority 2006, dated 2015).

Assays:
Assay type in all cases: cell-based, HIV-1
HIV strain K103N + Y181C = experiment: Cellular anti-HIV assay in MT4 LTR-EGFP cells, mutant K103N + Y181C; details: Human immunodeficiency virus 1, 72 h, read-out: K103N + Y181C pEC50 (converted)
Protocol: (§1) Because of the increasing emergence of drug resistant HIV strains, the present compounds were tested for their potency against clinically isolated HIV strains harbouring several mutations. These mutations are associated with resistance to reverse transcriptase inhibitors and result in viruses that show various degrees of phenotypic cross-resistance to the currently commercially available drugs such as for instance AZT and delavirdine.
(§2) The antiviral activity of the compound of the present invention has been evaluated in the presence of wild type HIV and HIV mutants bearing mutations at the reverse transcriptase gene. The activity of the compounds is evaluated using a cellular assay which was performed according to the following procedure.
(§3) The human T-cell line MT4 is engineered with Green Fluorescent Protein (GFP) and an HIV-specific promoter, HIV-1 long terminal repeat (LTR). This cell line is designated MT4 LTR-EGFP, and can be used for the in vitro evaluation of anti-HIV activity of investigational compounds. In HIV-1 infected cells, the Tat protein is produced which upregulates the LTR promotor and finally leads to stimulation of the GFP reporter production, allowing to measure ongoing HIV-infection fluorometrically. Analogously, MT4 cells are engineered with GFP and the constitutional cytomegalovirus (CMV) promotor. This cell line is designated MT4 CMV-EGFP, and can be used for the in vitro evaluation of cytotoxicity of investigational compounds. In this cell line, GFP levels are comparably to those of infected MT4 LTR-EGFP cells. Cytotoxic investigational compounds reduce GFP levels of mock-infected MT4 CMV-EGFP cells.
(§4) Effective concentration values such as 50% effective concentration (EC50) can be determined and are usually expressed in μM. An EC50 value is defined as the concentration of test compound that reduces the fluorescence of HIV-infected cells by 50%. The 50% cytotoxic concentration (CC50 in μM) is defined as the concentration of test compound that reduces fluorescence of the mock-infected cells by 50%. The ratio of CC50 to EC50 is defined as the selectivity index (SI) and is an indication of the selectivity of the anti-HIV activity of the inhibitor. The ultimate monitoring of HIV-1 infection and cytotoxicity is done using a scanning microscope. Image analysis allows very sensitive detection of viral infection. Measurements are done before cell necrosis, which usually takes place about five days after infection, in particular measurements are performed three days after infection.
(§5) The columns IIIB, L100I, etc. in the table list the pEC50 values against various strains IIIB, L100I, etc.

HIV strain MDR = experiment: Cellular anti-HIV assay in MT4 LTR-EGFP cells, MDR strain; details: Human immunodeficiency virus 1, read-out: MDR pEC50 (converted)
Protocol: as §1, §2, §3, §4, §5
MDR refers to a strain that contains mutations L100I, K103N, Y181C, E138G, V1791, L2214F, V278V/I and A327A/V in HIV reverse transcriptase.

HIV strain Y181C = experiment: Cellular anti-HIV assay in MT4 LTR-EGFP cells, mutant Y181C; details: Human immunodeficiency virus 1, read-out: Y181C pEC50 (converted)
Protocol: as §1, §2, §3, §4, §5

HIV strain L100I = experiment: Cellular anti-HIV assay in MT4 LTR-EGFP cells, mutant L100I; details: Human immunodeficiency virus 1, read-out: L100I pEC50 (converted)
Protocol: as §1, §2, §3, §4, §5

HIV strain K103N = experiment: Cellular anti-HIV assay in MT4 LTR-EGFP cells, mutant K103N; details: Human immunodeficiency virus 1, read-out: K103N pEC50 (converted)
Protocol: as §1, §2, §3, §4, §5

HIV strain L100I + K103N = experiment: Cellular anti-HIV assay in MT4 LTR-EGFP cells, mutant L100I + K103N; details: Human immunodeficiency virus 1, 72 h, read-out: L100I + K103N pEC50 (converted)
Protocol: as §1, §2, §3, §4, §5

HIV strain Y188L = experiment: Cellular anti-HIV assay in MT4 LTR-EGFP cells, mutant Y188L; details: Human immunodeficiency virus 1, read-out: Y188L pEC50 (converted)
Protocol: as §1, §2, §3, §4, §5

[1] = system: HIV strain IIIB (wild type); experiment: Cellular anti-HIV assay in MT4 LTR-EGFP cells, strain IIIB (wild type); selectivity index versus cytotoxicity in mock-infected MT4 CMV-EGFP cells; details: for EC50: Human immunodeficiency virus 1, 72 h, wild type HIV strain IIIB, MT4 LTR-EGFP cells, fluorescence, three days after infection, read-out: IIIB pEC50 (converted); for IIIB pSi: selectivity index = ratio of CC50 (mock-infected MT4 CMV-EGFP cells) to EC50 (IIIB), given as p value
Protocol: as §2, §3, §4, §5
Strain IIIB is wild type HIV strain

SMILES	EC50 (HIV strain K103N + Y181C)	EC50 (HIV strain MDR)	EC50 (HIV strain Y181C)	EC50 (HIV strain L100I)	EC50 (HIV strain K103N)	EC50 (HIV strain L100I + K103N)	EC50 (HIV strain Y188L)	EC50 [1]	IIIB pSi [1]
Cc1cc(/C=C/C#N)cc(C)c1Nc1nc(Nc2ccc(C#N)cc2)ncc1C(=O)NCC#N [Compound 21]	15.8 nM	501 nM	15.8 nM	3.98 nM	5.01 nM	15.8 nM	15.8 nM	15.8 nM	2.80
COCCNC(=O)c1cnc(Nc2ccc(C#N)cc2)nc1Oc1c(C)cc(/C=C/C#N)cc1C [Compound 60]	63.1 nM	10000 nM	31.6 nM	79.4 nM	12.6 nM	316 nM	158 nM	3.16 nM	3.50
Cc1cc(/C=C/C#N)cc(C)c1Nc1nc(Nc2ccc(C#N)cc2)ncc1C(=O)NCc1ccncc1 [Compound 15]	20 nM	200 nM	15.8 nM	12.6 nM	3.16 nM	63.1 nM	20 nM	3.16 nM	3.70
CCOC(=O)CN(C)C(=O)c1cnc(Nc2ccc(C#N)cc2)nc1Nc1c(C)cc(/C=C/C#N)cc1C [Compound 11]	79.4 nM	1580 nM	39.8 nM	7.94 nM	3.98 nM	50.1 nM	25.1 nM	2 nM	3.40
Cc1cc(/C=C/C#N)cc(C)c1Nc1nc(Nc2ccc(C#N)cc2)ncc1C(=O)NCc1ccc(N(C)C)cc1 [Compound 30]	100 nM	5010 nM	100 nM	100 nM	15.8 nM	251 nM	316 nM	12.6 nM	>3.30
CCOC(=O)CCNC(=O)c1cnc(Nc2ccc(C#N)cc2)nc1Nc1c(C)cc(/C=C/C#N)cc1C [Compound 14]	10 nM	631 nM	12.6 nM	2.51 nM	2.51 nM	15.8 nM	12.6 nM	2.51 nM	>4.00
Cc1cc(/C=C/C#N)cc(C)c1Nc1nc(Nc2ccc(C#N)cc2)ncc1C(=O)NCCc1ccccc1 [Compound 31]	50.1 nM	10000 nM	63.1 nM	31.6 nM	15.8 nM		79.4 nM	15.8 nM	3.10
Cc1cc(/C=C/C#N)cc(C)c1Oc1nc(Nc2ccc(C#N)cc2)ncc1C(=O)NCC#N [Compound 61]	25.1 nM	3160 nM	20 nM	20 nM	3.98 nM	50.1 nM	100 nM	3.16 nM	>3.90
Cc1cc(/C=C/C#N)cc(C)c1Nc1nc(Nc2ccc(C#N)cc2)ncc1C(=O)NCc1ccco1 [Compound 19]	20 nM	1000 nM	20 nM	3.98 nM	3.98 nM	50.1 nM	20 nM	3.98 nM	3.60
Cc1cc(/C=C/C#N)cc(C)c1Nc1nc(Nc2ccc(C#N)cc2)ncc1C(=O)NCc1cccc(Cl)c1 [Compound 25]	31.6 nM	10000 nM	79.4 nM	25.1 nM	15.8 nM	39.8 nM	50.1 nM	12.6 nM	3.00
Cc1cc(/C=C/C#N)cc(C)c1Nc1nc(Nc2ccc(C#N)cc2)ncc1C(=O)NCCc1ccccn1 [Compound 44]	10 nM	1260 nM	10 nM	12.6 nM	2.51 nM	31.6 nM	7.94 nM	2 nM	>4.10
